This passage reports Activity results from ChEMBL document CHEMBL1151391, “New Dihydrochalcones and Flavanones From Uvaria Angolensis” (1982).

The structures appear in SMILES notation.

Format in all cases: functional
The subject of one assay is Staphylococcus aureus. Description: Antimicrobial activity against Staphylococcus aureus.
The subject of a further assay is Bacillus subtilis. Description: Antimicrobial activity against Bacillus subtilis.
For assay [1], the system named is Mycolicibacterium smegmatis. Description: Antimicrobial activity against Mycobacterium smegmatis.

`COc1c(C)c(O)c(C)c(O)c1C(=O)CCc1ccccc1` [ANGOLETIN]: the results for the Activity (with Staphylococcus aureus; in the assay with Bacillus subtilis; in assay [1]) were 12.5 µg/mL, 0.8 µg/mL and 6.3 µg/mL, respectively.
For `COc1c(C)c(O)c(Cc2ccccc2O)c(O)c1C(=O)CCc1ccccc1` [ANGUVETIN], in that order: 1.5 µg/mL, 0.2 µg/mL and 1.5 µg/mL.
